Test results: patent US20240277684A1, “BLOCKADE OF CHEMOKINE (C-C MOTIF) RECEPTOR 2 DURING FLUID RESUSCITATION” (University of South Florida, priority 2022, published 2024)

What was measured:
hemorrhagic shock [1] = assay: Example 1 first series: 30 min hemorrhagic shock, fluid resuscitation until t=90 min; type: in vivo, rat
Procedure: In vivo animal experiments. All procedures were performed in accordance with the National Institutes of Health Guidelines for Use of Laboratory Animals and were approved by the University of South Florida Institutional Animal Care and Use Committeee (IS00008139). Male Sprague-Dawley rats (300-400 g, Envigo, Indianapolis, IN, USA). were anesthetized with 1.7% isoflurane via nose-cone inhalation with the SomnoSuite anesthesia system (Kent Scientific, Torrington, CT, USA). […] The left femoral artery was isolated and cannulated with a 24-gauge peripheral intravenous catheter to allow for blood withdrawal, hemodynamic monitoring, drug administration, and fluid resuscitation. Hemodynamics were continuously monitored with the SurgivetV6400 blood pressure monitor (Med-Electronics, Beltsville, MD, USA), and blood pressures and heart rate were recorded at 1-10 min intervals. All animals were observed over a 10 min period to ensure hemodynamic stability before start of the experiments. All experiments were performed randomized in alternating order. […] Physiol Res 2019; 68(4):675-679; Nassoiy S P, et al., Effects of the Kv7 voltage-activated potassium channel inhibitor linopirdine in rat models of haemorrhagic shock. Clin Exp Pharmacol Physiol 2018; Nassoiy S P, et al., Kv7 voltage-activated potassium channel inhibitors reduce fluid resuscitation requirements after hemorrhagic shock in rats. J Biomed Sci 2017; 24(1):8; Bach H Ht, et al., Proteasome inhibition prolongs survival during lethal hemorrhagic shock in rats. J Trauma Acute Care Surg 2013; 74(2):499-507; Bach H Ht, et al., Chemokine (C-X-C motif) receptor 4 and atypical chemokine receptor 3 regulate vascular alpha(1)-adrenergic receptor function. Mol Med 2014; 20:435-447), with slight modifications. In brief, rats were hemorrhaged to a mean arterial blood pressure (MAP) of less than or equal to 30 mmHg for a period of 30 minutes. At the end of the HS period (t=30 min), animals were injected with either vehicle (1 mL LR) or drug in 1 mL LR, followed by fluid resuscitation with 1 mL bolus injections of LR to maintain a systolic blood pressure (SBP) of 90 mmHg or a MAP of 60 mmHg. To avoid fluid overload, bolus injections of LR were limited to 1 mL/min. […] Animals were then resuscitated until t=90 min. At t=0, 15, 30, 60 and 90 min, blood samples were obtained, and plasma prepared. Samples were stored at -70° C. until further processing. At t=90 min, animals were euthanized (isoflurane inhalation, bilateral pneumothorax).

hemorrhagic shock [2] = assay: Example 1 second series: 30 min hemorrhagic shock, fluid resuscitation until t=300 min; type: in vivo, rat
Procedure: In vivo animal experiments. All procedures were performed in accordance with the National Institutes of Health Guidelines for Use of Laboratory Animals and were approved by the University of South Florida Institutional Animal Care and Use Committeee (IS00008139). Male Sprague-Dawley rats (300-400 g, Envigo, Indianapolis, IN, USA). were anesthetized with 1.7% isoflurane via nose-cone inhalation with the SomnoSuite anesthesia system (Kent Scientific, Torrington, CT, USA). […] The left femoral artery was isolated and cannulated with a 24-gauge peripheral intravenous catheter to allow for blood withdrawal, hemodynamic monitoring, drug administration, and fluid resuscitation. Hemodynamics were continuously monitored with the SurgivetV6400 blood pressure monitor (Med-Electronics, Beltsville, MD, USA), and blood pressures and heart rate were recorded at 1-10 min intervals. All animals were observed over a 10 min period to ensure hemodynamic stability before start of the experiments. All experiments were performed randomized in alternating order.
To test the effects of INCB3284 and Maraviroc after HS, a Wiggers fixed pressure hemorrhage and fluid resuscitation model was used as described (Babu F S, et al., Chemokine (C-X-C motif) receptor 4 regulates lung endothelial barrier permeability during resuscitation from hemorrhagic shock. Physiol Res 2019; 68(4):675-679; Nassoiy S P, et al., Effects of the Kv7 voltage-activated potassium channel inhibitor linopirdine in rat models of haemorrhagic shock. Clin Exp Pharmacol Physiol 2018; Nassoiy S P, et al., Kv7 voltage-activated potassium channel inhibitors reduce fluid resuscitation requirements after hemorrhagic shock in rats. J Biomed Sci 2017; 24(1):8; Bach H Ht, et al., Proteasome inhibition prolongs survival during lethal hemorrhagic shock in rats. J Trauma Acute Care Surg 2013; 74(2):499-507; Bach H Ht, et al., Chemokine (C-X-C motif) receptor 4 and atypical chemokine receptor 3 regulate vascular alpha(1)-adrenergic receptor function. Mol Med 2014; 20:435-447), with slight modifications. In brief, rats were hemorrhaged to a mean arterial blood pressure (MAP) of less than or equal to 30 mmHg for a period of 30 minutes. At the end of the HS period (t=30 min), animals were injected with either vehicle (1 mL LR) or drug in 1 mL LR, followed by fluid resuscitation with 1 mL bolus injections of LR to maintain a systolic blood pressure (SBP) of 90 mmHg or a MAP of 60 mmHg. To avoid fluid overload, bolus injections of LR were limited to 1 mL/min. In the first series of experiments, animals received 1 mL of LR (n=9), 1.1 μmol/kg (n=4) or 5.5 μmol/kg (n=5) INCB3284 in 1 mL LR or […] Maraviroc (n=3) in 1 mL LR at t=30 min. Animals were then resuscitated until t=90 min. At t=0, 15, 30, 60 and 90 min, blood samples were obtained, and plasma prepared. Samples were stored at −70° C. until further processing. At t=90 min, animals were euthanized (isoflurane inhalation, bilateral pneumothorax).
In the second series of experiments, animals received 1 mL of LR (n=10) or 5 μmol/kg INCB3284 in 1 mL LR (n=8) at t=30 min. Animals were resuscitated until t=300 min. Blood samples were obtained for arterial blood gas analyses and measurements of routine laboratory parameters at time points t=0, 30, 90, 150, 210, 270 and 300 min. Death was defined as asystole or loss of a pulse pressure. At the end of the experiments, surviving animals were euthanized as described before. In animals that survived until t=300 min, a gross necropsy was performed after euthanasia, and tissue from lung, small intestine, and colon was collected for measurements of wet-weight/dry-weight ratios.
Arterial blood gases and routine laboratory parameters. Arterial blood gases, electrolytes, creatinine, lactate, hematocrit and hemoglobin were analyzed using the Element point of care veterinary blood gas, electrolyte and critical care analyzer (Cuattro Veterinary USA, Loveland, CO, USA).
Wet-weight/dry-weight ratios.

[3] = rats; cited from earlier work
[4] = 5 μmol/kg, animals that survived until t=300 min
[5] = 5 μmol/kg, animals that survived until t=300 min, vs vehicle

Question: For `COc1ccc([C@]2(O)CC[C@@H](N3CC[C@@H](NC(=O)CNC(=O)c4cccc(C(F)(F)F)c4)C3)CC2)cn1` [INCB3284], which “fluid requirements to maintain hemodynamics” value (hemorrhagic shock [1]; 1.1 μmol/kg at t=30 min, until t=90 min, p>0.05 vs. vehicle) is on record?
Answer: Its value is 50 ± 1 mL/kg.

Question: What about the “effect on fluid requirements to maintain hemodynamics” value (hemorrhagic shock [1]; 1.1 μmol/kg at t=30 min, vs vehicle) of the same compound?
Answer: The value was “did not affect fluid requirements”.

Question: What about the “MAP during the observation period” value (hemorrhagic shock [1]; 5.5 μmol/kg at t=30 min) of the same compound?
Answer: Its value is “increased MAP at various time points”.

Question: And the “reduction of fluid requirements” value (hemorrhagic shock [1]; 5.5 μmol/kg at t=30 min, until t=90 min, vs vehicle)?
Answer: Its value is 58±11%.

Question: And the “fluid requirements to maintain hemodynamics” value (hemorrhagic shock [1]; 5.5 μmol/kg at t=30 min, until t=90 min, p<0.05 vs. vehicle)?
Answer: The value was 21.7 ± 6 mL/kg.

Question: And the “colon wet weight/dry weight ratios, difference to vehicle” value (hemorrhagic shock [2]; [4])?
Answer: Its value is “did not reach statistical significance”.

Question: What about the “small bowel wet weight/dry weight ratios, difference to vehicle” value (hemorrhagic shock [2]; [4]) of the same compound?
Answer: Its value is “did not reach statistical significance”.

Question: What about the “lung wet weight/dry weight ratios” value (hemorrhagic shock [2]; [5]) of the same compound?
Answer: Its value is “significantly reduced”.

Question: And the “wet weight/dry weight ratios of all tissues combined” value (hemorrhagic shock [2]; [5])?
Answer: The value was “significantly reduced”.

Question: What about the “animals demonstrating the beginning of hemodynamic decompensation” value (hemorrhagic shock [2]; 5 μmol/kg, n=8, p<0.01 vs. vehicle) of the same compound?
Answer: Its value is “None”.

Question: And the mortality (hemorrhagic shock [2]; 5 μmol/kg, until t=300 min, p<0.05)?
Answer: The mortality was 0%.

Question: And the median survival time (hemorrhagic shock [2]; 5 μmol/kg, p<0.05 vs. vehicle)?
Answer: The median survival time was greater than 300 min.

Question: And the “reduction of average fluid requirements” value (hemorrhagic shock [2]; single dose 5 μmol/kg at t=30 min, until t=300 min, vs vehicle)?
Answer: The value was 62±6%.

Question: And the average fluid requirements (hemorrhagic shock [2]; single dose 5 μmol/kg at t=30 min, until t=300 min, p<0.05)?
Answer: Its average fluid requirements is 61.9 ± 10 mL/kg.

Question: What about the half-live [3] of the same compound?
Answer: The half-live was 168 min.
